Laboratory results taken from PubChem BioAssay (NCI).
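Briefly, cells in 96-well plates were exposed to five compound concentrations for 48 h, and endpoints were estimated by linear interpolation. GI50 = concentration required for 50% inhibition of growth. TGI is the concentration that stops growth completely.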

Legend:
Assay in all cases: growth of human tumour cells (NCI), 48 h
786-0 renal = tested on: 786-0 renal
A498 renal = tested on: A498 renal
A549 NSCLC = tested on: A549 NSCLC
ACHN renal = tested on: ACHN renal
BT-549 breast = tested on: BT-549 breast
CAKI-1 renal = tested on: CAKI-1 renal
CCRF-CEM leukemia = tested on: CCRF-CEM leukemia
COLO 205 colon = tested on: COLO 205 colon
DU-145 prostate = tested on: DU-145 prostate
EKVX NSCLC = tested on: EKVX NSCLC
HCC-2998 colon = tested on: HCC-2998 colon
HCT-116 colon = tested on: HCT-116 colon
HCT-15 colon = tested on: HCT-15 colon
HL-60(TB) leukemia = tested on: HL-60(TB) leukemia
HOP-62 NSCLC = tested on: HOP-62 NSCLC
HOP-92 NSCLC = tested on: HOP-92 NSCLC
HS 578T breast = tested on: HS 578T breast
HT29 colon = tested on: HT29 colon
IGROV1 ovarian = tested on: IGROV1 ovarian
K-562 leukemia = tested on: K-562 leukemia
KM12 colon = tested on: KM12 colon
LOX IMVI melanoma = tested on: LOX IMVI melanoma
M14 melanoma = tested on: M14 melanoma
MALME-3M melanoma = tested on: MALME-3M melanoma
MCF7 breast = tested on: MCF7 breast
MDA-MB-231 breast = tested on: MDA-MB-231 breast
MDA-MB-435 = tested on: MDA-MB-435
MOLT-4 leukemia = tested on: MOLT-4 leukemia
NCI-H226 lung = tested on: NCI-H226 lung
NCI-H460 lung = tested on: NCI-H460 lung
NCI-H522 lung = tested on: NCI-H522 lung
NCI/ADR-RES ovarian = tested on: NCI/ADR-RES ovarian
OVCAR-3 ovarian = tested on: OVCAR-3 ovarian
OVCAR-4 ovarian = tested on: OVCAR-4 ovarian
OVCAR-5 ovarian = tested on: OVCAR-5 ovarian
OVCAR-8 ovarian = tested on: OVCAR-8 ovarian
PC-3 prostate = tested on: PC-3 prostate
RPMI-8226 leukemia = tested on: RPMI-8226 leukemia
RXF 393 renal = tested on: RXF 393 renal
SF-268 CNS = tested on: SF-268 CNS
SF-295 CNS = tested on: SF-295 CNS
SF-539 CNS = tested on: SF-539 CNS
SK-MEL-2 melanoma = tested on: SK-MEL-2 melanoma
SK-MEL-28 melanoma = tested on: SK-MEL-28 melanoma
SK-MEL-5 melanoma = tested on: SK-MEL-5 melanoma
SK-OV-3 ovarian = tested on: SK-OV-3 ovarian
SN12C renal = tested on: SN12C renal
SNB-19 CNS = tested on: SNB-19 CNS
SNB-75 CNS = tested on: SNB-75 CNS
SW-620 colon = tested on: SW-620 colon
T-47D breast = tested on: T-47D breast
TK-10 renal = tested on: TK-10 renal
U251 CNS = tested on: U251 CNS
UACC-257 melanoma = tested on: UACC-257 melanoma
UACC-62 melanoma = tested on: UACC-62 melanoma
UO-31 renal = tested on: UO-31 renal

C#Cc1nc(C2=C(C)/C(=N/OCc3ccccc3)CC2)cs1
GI50 (786-0 renal): 1.63 µM
TGI (786-0 renal): 3.12 µM
GI50 (A498 renal): > 100 µM
TGI (A498 renal): > 100 µM
GI50 (A549 NSCLC): 43.4 µM
TGI (A549 NSCLC): > 100 µM
GI50 (ACHN renal): 2.91 µM
TGI (ACHN renal): > 100 µM
GI50 (BT-549 breast): 15.5 µM
TGI (BT-549 breast): 33.9 µM
GI50 (CAKI-1 renal): 32.6 µM
TGI (CAKI-1 renal): > 100 µM
GI50 (CCRF-CEM leukemia): 3.28 µM
TGI (CCRF-CEM leukemia): 15.6 µM
GI50 (COLO 205 colon): > 100 µM
TGI (COLO 205 colon): > 100 µM
GI50 (DU-145 prostate): > 100 µM
TGI (DU-145 prostate): > 100 µM
GI50 (EKVX NSCLC): > 100 µM
TGI (EKVX NSCLC): > 100 µM
GI50 (HCC-2998 colon): > 100 µM
TGI (HCC-2998 colon): > 100 µM
GI50 (HCT-116 colon): 31.9 µM
TGI (HCT-116 colon): > 100 µM
GI50 (HCT-15 colon): 27.8 µM
TGI (HCT-15 colon): > 100 µM
GI50 (HL-60(TB) leukemia): 17.5 µM
TGI (HL-60(TB) leukemia): 40.9 µM
GI50 (HOP-62 NSCLC): > 100 µM
TGI (HOP-62 NSCLC): > 100 µM
GI50 (HOP-92 NSCLC): 5.71 µM
TGI (HOP-92 NSCLC): 24.5 µM
GI50 (HS 578T breast): 71.4 µM
TGI (HS 578T breast): > 100 µM
GI50 (HT29 colon): 31 µM
TGI (HT29 colon): > 100 µM
GI50 (IGROV1 ovarian): 1.97 µM
TGI (IGROV1 ovarian): 4.29 µM
GI50 (K-562 leukemia): 40.4 µM
TGI (K-562 leukemia): > 100 µM
GI50 (KM12 colon): > 100 µM
TGI (KM12 colon): > 100 µM
GI50 (LOX IMVI melanoma): 0.199 µM
TGI (LOX IMVI melanoma): 0.444 µM
GI50 (M14 melanoma): 74.8 µM
TGI (M14 melanoma): > 100 µM
GI50 (MALME-3M melanoma): 8.37 µM
TGI (MALME-3M melanoma): 30.6 µM
GI50 (MCF7 breast): 21.6 µM
TGI (MCF7 breast): > 100 µM
GI50 (MDA-MB-231 breast): 32.2 µM
TGI (MDA-MB-231 breast): > 100 µM
GI50 (MDA-MB-435): > 100 µM
TGI (MDA-MB-435): > 100 µM
GI50 (MOLT-4 leukemia): 22.4 µM
TGI (MOLT-4 leukemia): 87.6 µM
GI50 (NCI-H226 lung): 13.5 µM
TGI (NCI-H226 lung): > 100 µM
GI50 (NCI-H460 lung): 44.2 µM
TGI (NCI-H460 lung): > 100 µM
GI50 (NCI-H522 lung): 5.23 µM
TGI (NCI-H522 lung): 23.3 µM
GI50 (NCI/ADR-RES ovarian): 40.1 µM
TGI (NCI/ADR-RES ovarian): > 100 µM
GI50 (OVCAR-3 ovarian): > 100 µM
TGI (OVCAR-3 ovarian): > 100 µM
GI50 (OVCAR-4 ovarian): 50.9 µM
TGI (OVCAR-4 ovarian): > 100 µM
GI50 (OVCAR-5 ovarian): 11.7 µM
TGI (OVCAR-5 ovarian): > 100 µM
GI50 (OVCAR-8 ovarian): 47.8 µM
TGI (OVCAR-8 ovarian): > 100 µM
GI50 (PC-3 prostate): 36.8 µM
TGI (PC-3 prostate): > 100 µM
GI50 (RPMI-8226 leukemia): 5.74 µM
TGI (RPMI-8226 leukemia): 38.3 µM
GI50 (RXF 393 renal): 2.76 µM
TGI (RXF 393 renal): 21.7 µM
GI50 (SF-268 CNS): 34.7 µM
TGI (SF-268 CNS): > 100 µM
GI50 (SF-295 CNS): 4.76 µM
TGI (SF-295 CNS): > 100 µM
GI50 (SF-539 CNS): 1.67 µM
TGI (SF-539 CNS): 3.07 µM
GI50 (SK-MEL-2 melanoma): 61.8 µM
TGI (SK-MEL-2 melanoma): > 100 µM
GI50 (SK-MEL-28 melanoma): 49.2 µM
TGI (SK-MEL-28 melanoma): > 100 µM
GI50 (SK-MEL-5 melanoma): 22.6 µM
TGI (SK-MEL-5 melanoma): > 100 µM
GI50 (SK-OV-3 ovarian): 25.5 µM
TGI (SK-OV-3 ovarian): 61.6 µM
GI50 (SN12C renal): 19.9 µM
TGI (SN12C renal): > 100 µM
GI50 (SNB-19 CNS): 57.1 µM
TGI (SNB-19 CNS): > 100 µM
GI50 (SNB-75 CNS): > 100 µM
TGI (SNB-75 CNS): > 100 µM
GI50 (SW-620 colon): 46.9 µM
TGI (SW-620 colon): > 100 µM
GI50 (T-47D breast): 31 µM
TGI (T-47D breast): > 100 µM
GI50 (TK-10 renal): > 100 µM
TGI (TK-10 renal): > 100 µM
GI50 (U251 CNS): 50.1 µM
TGI (U251 CNS): > 100 µM
GI50 (UACC-257 melanoma): 78.5 µM
TGI (UACC-257 melanoma): > 100 µM
GI50 (UACC-62 melanoma): 37.2 µM
TGI (UACC-62 melanoma): > 100 µM
GI50 (UO-31 renal): 0.405 µM
TGI (UO-31 renal): 1.49 µM
